This passage reports Activity and Ratio results from ChEMBL document CHEMBL1122363, “Synthesis and some pharmacological properties of oxytocin and vasopressin analogues with sarcosine or N-methyl-L-alanine in position 7” (1983).

Structures are written as SMILES. Activity calls are given as the source filed them. The rule behind the calls is not given here. Positions of bridges follow the written chain, without caps; N, C: chain ends. Non-standard residues stand in square brackets, D forms with d. Residues, ends and D or L forms follow the SMILES beside them. NMeA = CN[C@@H](C)C(=O)O; Mpa = O=C(O)CCS; Sar = CNCC(=O)O

Assay [1] is filed under the species Rattus norvegicus. Nature of the assay: Uterotonic activity in vitro in isolated rat uterus in presence of magnesium. Type of assay: functional.
A short description of assay [2]: Tested for the ratio of antidiuretic potency to uterotonic potency(A/O). Type of assay: functional, Urine.
The species entered for assay [3] is Rattus norvegicus. Nature of the assay: The compound was tested for milk ejection activity in rat. Type of assay: functional. Set-up: unit not given here.
A short description of assay [4]: Tested for the ratio of antidiuretic potency to uterotonic potency(A/P). The assay is classed as functional.
Assay [5] is filed under the species Rattus norvegicus. In words: Uterotonic activity in vitro in isolated rat uterus in absence of magnesium. Type of assay: functional. Set-up: unit not given here.
The species entered for assay [6] is Rattus norvegicus. In words: Tested for vasopressor activity in rat. Type of assay: functional. Further details: unit not given here.
The species entered for assay [7] is Rattus norvegicus. In words: Tested for antidiuretic activity in rat. The assay is classed as functional, Urine. Set-up: unit not given here.
Assay [8] in a line: Tested for the ratio of uterotonic potency to pressor potency(O/P). Type of assay: functional.
Assay [9] is described as follows: Tested for the ratio of uterotonic potency to antidiuretic potency(O/A). Type of assay: functional, Urine.
For assay [10], the species on record is Rattus norvegicus. Nature of the assay: Tested for vasopressor activity in rat; N-None. Type of assay: functional, organism-based.
For assay [11], the species on record is Rattus norvegicus. Nature of the assay: Tested for vasopressor activity in rat;N-None. Type of assay: functional, organism-based.

As for `CN(CC(=O)N[C@@H](CCCN=C(N)N)C(=O)NCC(N)=O)C(=O)[C@@H]1CSSCCC(=O)N[C@@H](Cc2ccc(O)cc2)C(=O)N[C@@H](Cc2ccccc2)C(=O)N[C@@H](CCC(N)=O)C(=O)N[C@@H](CC(N)=O)C(=O)N1` ([Mpa]YFQNC[Sar]RG-NH2; disulfide 1-6), the Activity is 0.84 IU/mg in the assay filed under Rattus norvegicus [1]; 38.2 in the assay filed under Rattus norvegicus [3]; 580 in the assay filed under Rattus norvegicus [5]; 49 in the assay filed under Rattus norvegicus [6]; 193 in the assay listed under Rattus norvegicus [7]. Further, the Ratio in assay [2] is on record as 15; in [4] it was 690.

Regarding `CC[C@H](C)[C@@H]1NC(=O)[C@H](Cc2ccc(O)cc2)NC(=O)CCSSC[C@H](C(=O)N2CCC[C@H]2C(=O)N[C@@H](CC(C)C)C(=O)NCC(N)=O)NC(=O)[C@H](CC(N)=O)NC(=O)[C@H](CCC(N)=O)NC1=O`, the Ratio in assay [8] turned out to be 120.

As for `C[C@@H](C(=O)N[C@@H](CCCN=C(N)N)C(=O)NCC(N)=O)N(C)C(=O)[C@@H]1CSSC[C@H](N)C(=O)N[C@@H](Cc2ccc(O)cc2)C(=O)N[C@@H](Cc2ccccc2)C(=O)N[C@@H](CCC(N)=O)C(=O)N[C@@H](CC(N)=O)C(=O)N1` (H-CYFQNC[NMeA]RG-NH2; disulfide 1-6), the Activity in the assay filed under Rattus norvegicus [1] was 10.6 IU/mg; in the assay filed under Rattus norvegicus [3], 2.8; in the assay filed under Rattus norvegicus [5], 343; in the assay listed under Rattus norvegicus [6], 4.1; in the assay filed under Rattus norvegicus [7] it was 35. In addition, the Ratio was 122 in assay [2] and 32 in assay [4].

For the compound `N=C(N)NCCC[C@H](NC(=O)[C@@H]1CCCN1C(=O)[C@@H]1CSSCCC(=O)N[C@@H](Cc2ccc(O)cc2)C(=O)N[C@@H](Cc2ccccc2)C(=O)N[C@@H](CCC(N)=O)C(=O)N[C@@H](CC(N)=O)C(=O)N1)C(=O)NCC(N)=O` [DESMOPRESSIN], the Activity in the assay filed under Rattus norvegicus [1] is 346 IU/mg. The Ratio in assay [2] was determined as 60; in assay [4] it was 5.

Consider `CC[C@H](C)[C@@H]1NC(=O)[C@@H](Cc2ccc(O)cc2)NC(=O)[C@H](N)CSSC[C@@H](C(=O)N[C@@H](C)C(=O)N[C@@H](CC(C)C)C(=O)NCC(N)=O)NC(=O)[C@H](CC(N)=O)NC(=O)[C@@H](CCC(N)=O)NC1=O`, for which, in assay [8], the Ratio is 55.

As for `CC[C@H](C)[C@@H]1NC(=O)[C@H](Cc2ccc(O)cc2)NC(=O)[C@@H](N)CSSC[C@@H](C(=O)N(C)[C@@H](C)C(=O)N[C@@H](CC(C)C)C(=O)NCC(N)=O)NC(=O)[C@H](CC(N)=O)NC(=O)[C@H](CCC(N)=O)NC1=O`, the Ratio in [9] came out at 620. For the same compound, the Activity in the assay listed under Rattus norvegicus [1] was found to be 184 IU/mg; in the assay listed under Rattus norvegicus [3] it was 402; in the assay listed under Rattus norvegicus [5] it was 62; in the assay filed under Rattus norvegicus [7], 0.12.

As to `CC[C@H](C)[C@@H]1NC(=O)[C@@H](Cc2ccc(O)cc2)NC(=O)CCSSC[C@@H](C(=O)N(C)CC(=O)N[C@@H](CC(C)C)C(=O)NCC(N)=O)NC(=O)[C@H](CC(N)=O)NC(=O)[C@@H](CCC(N)=O)NC1=O`, in the assay listed under Rattus norvegicus [10], the outcome was inactive.

For `CC[C@H](C)[C@@H]1NC(=O)[C@@H](Cc2ccc(O)cc2)NC(=O)[C@H](N)CSSC[C@@H](C(=O)N(C)[C@@H](C)C(=O)N[C@@H](CC(C)C)C(=O)NCC(N)=O)NC(=O)[C@H](CC(N)=O)NC(=O)[C@@H](CCC(N)=O)NC1=O`, in the assay filed under Rattus norvegicus [11], the result was inactive.

`CC[C@H](C)[C@@H]1NC(=O)[C@H](Cc2ccc(O)cc2)NC(=O)CCSSC[C@@H](C(=O)N(C)[C@@H](C)C(=O)N[C@@H](CC(C)C)C(=O)NCC(N)=O)NC(=O)[C@H](CC(N)=O)NC(=O)[C@H](CCC(N)=O)NC1=O` ([Mpa]YIQNC[NMeA]LG-NH2; disulfide 1-6): the Activity in the assay filed under Rattus norvegicus [1] is 274 IU/mg; in the assay filed under Rattus norvegicus [3], 157; in the assay listed under Rattus norvegicus [5], 98.

In the case of `CC[C@H](C)[C@@H]1NC(=O)[C@@H](Cc2ccc(O)cc2)NC(=O)[C@H](N)CSSC[C@@H](C(=O)NCC(=O)N[C@@H](CC(C)C)C(=O)NCC(N)=O)NC(=O)[C@H](CC(N)=O)NC(=O)[C@@H](CCC(N)=O)NC1=O`, the Ratio in assay [8] was 9300.

For the compound `CC[C@H](C)[C@@H]1NC(=O)[C@H](Cc2ccc(O)cc2)NC(=O)[C@@H](N)CSSC[C@@H](C(=O)N2CCC[C@H]2C(=O)N[C@@H](CC(C)C)C(=O)NCC(N)=O)NC(=O)[C@H](CC(N)=O)NC(=O)[C@H](CCC(N)=O)NC1=O` [OXYTOCIN], the Activity in the assay listed under Rattus norvegicus [1] amounted to 486 IU/mg. In assay [8], the Ratio came out at 120.

Turning to `C[C@@H](C(=O)N[C@@H](CCCN=C(N)N)C(=O)NCC(N)=O)N(C)C(=O)[C@@H]1CSSCCC(=O)N[C@@H](Cc2ccc(O)cc2)C(=O)N[C@@H](Cc2ccccc2)C(=O)N[C@@H](CCC(N)=O)C(=O)N[C@@H](CC(N)=O)C(=O)N1` ([Mpa]YFQNC[NMeA]RG-NH2; disulfide 1-6), the Activity is 1.3 IU/mg in the assay filed under Rattus norvegicus [1]; 1.7 in the assay filed under Rattus norvegicus [3]; 113 in the assay filed under Rattus norvegicus [5]; 8 in the assay filed under Rattus norvegicus [6]; 35 in the assay listed under Rattus norvegicus [7]. The values for the Ratio in assay [2] and in assay [4] were 78 and 102, respectively.

As to `NC(=O)CC[C@@H]1NC(=O)[C@H](Cc2ccccc2)NC(=O)[C@H](Cc2ccc(O)cc2)NC(=O)[C@@H](N)CSSC[C@@H](C(=O)NCC(=O)N[C@@H](CCCN=C(N)N)C(=O)NCC(N)=O)NC(=O)[C@H](CC(N)=O)NC1=O` (H-CYFQNCGRG-NH2; disulfide 1-6), the Activity was found to be 0.01 IU/mg in the assay filed under Rattus norvegicus [1] and 0.1 in the assay listed under Rattus norvegicus [3].

Turning to `CC[C@H](C)[C@@H]1NC(=O)[C@H](Cc2ccc(O)cc2)NC(=O)[C@@H](N)CSSC[C@@H](C(=O)NCC(=O)N[C@@H](CC(C)C)C(=O)NCC(N)=O)NC(=O)[C@H](CC(N)=O)NC(=O)[C@H](CCC(N)=O)NC1=O`, in assay [9], the Ratio was 16600. Moreover, the Activity in the assay filed under Rattus norvegicus [3] was 392; in the assay filed under Rattus norvegicus [5], 93; in the assay filed under Rattus norvegicus [6], 0.01; in the assay listed under Rattus norvegicus [7] it was 0.0056.

On to `CC[C@H](C)[C@@H]1NC(=O)[C@H](Cc2ccc(O)cc2)NC(=O)CCSSC[C@@H](C(=O)N2CCC[C@H]2C(=O)N[C@@H](CC(C)C)C(=O)NCC(N)=O)NC(=O)[C@H](CC(N)=O)NC(=O)[C@H](CCC(N)=O)NC1=O` [DEMOXYTOCIN], for which the Ratio in assay [9] amounted to 130.

For `CC[C@H](C)[C@@H]1NC(=O)[C@H](Cc2ccc(O)cc2)NC(=O)[C@@H](N)CSSC[C@@H](C(=O)N[C@@H](C)C(=O)N[C@@H](CC(C)C)C(=O)NCC(N)=O)NC(=O)[C@H](CC(N)=O)NC(=O)[C@H](CCC(N)=O)NC1=O`, in [9], the Ratio was 275. In addition, the results for the Activity in the assay listed under Rattus norvegicus [5], in the assay listed under Rattus norvegicus [6] and in the assay filed under Rattus norvegicus [7] were 22, 0.4 and 0.08, respectively.

As for `CC[C@H](C)[C@@H]1NC(=O)[C@H](Cc2ccc(O)cc2)NC(=O)CCSSC[C@@H](C(=O)N(C)CC(=O)N[C@@H](CC(C)C)C(=O)NCC(N)=O)NC(=O)[C@H](CC(N)=O)NC(=O)[C@H](CCC(N)=O)NC1=O`, the Activity in the assay listed under Rattus norvegicus [1] was determined as 1350 IU/mg; in the assay listed under Rattus norvegicus [3], 498; in the assay listed under Rattus norvegicus [5] it was 745.

Turning to `CC[C@H](C)[C@@H]1NC(=O)[C@H](Cc2ccc(O)cc2)NC(=O)[C@@H](N)CSSC[C@@H](C(=O)N(C)CC(=O)N[C@@H](CC(C)C)C(=O)NCC(N)=O)NC(=O)[C@H](CC(N)=O)NC(=O)[C@H](CCC(N)=O)NC1=O` (H-CYIQNC[Sar]LG-NH2; disulfide 1-6), the Ratio in assay [9] is reported as 2550. Besides, the Activity in the assay listed under Rattus norvegicus [1] was 609 IU/mg; in the assay listed under Rattus norvegicus [3], 564; in the assay listed under Rattus norvegicus [5], 459; in the assay filed under Rattus norvegicus [7] it was 0.18.

For the compound `CN(CC(=O)N[C@@H](CCCN=C(N)N)C(=O)NCC(N)=O)C(=O)[C@@H]1CSSC[C@H](N)C(=O)N[C@@H](Cc2ccc(O)cc2)C(=O)N[C@@H](Cc2ccccc2)C(=O)N[C@@H](CCC(N)=O)C(=O)N[C@@H](CC(N)=O)C(=O)N1` (H-CYFQNC[Sar]RG-NH2; disulfide 1-6), the Activity in the assay listed under Rattus norvegicus [1] is 3.6 IU/mg; in the assay listed under Rattus norvegicus [3], 9.3; in the assay filed under Rattus norvegicus [5] it was 188; in the assay filed under Rattus norvegicus [6], 36; in the assay listed under Rattus norvegicus [7] it was 110. The Ratio is 20 in [2] and 52 in assay [4].
